According to ChEMBL document CHEMBL5126576, “From tryptophan to novel mitochondria-disruptive agent, synthesis and biological evaluation of 1,2,3,6-tetrasubstituted carbazoles” (Eur J Med Chem, 2022):
The source made the active and inactive calls. The rule behind the calls is not given here.

What was measured:
[1] = test system: HCT-116; test: Antiproliferative activity against human HCT-116 cells after 72 hrs by MTT assay; assay type: functional, cell-based; conditions: HCT-116, 72 h
[2] = test system: A549; test: Antiproliferative activity against human A549 cells after 72 hrs by MTT assay; assay type: functional, cell-based; conditions: A549, 72 h
[3] = test system: MCF7; test: Antiproliferative activity against human MCF7 cells after 72 hrs by MTT assay; assay type: functional, cell-based; conditions: MCF7, 72 h
[4] = test system: U2OS; test: Antiproliferative activity against human U2OS cells after 72 hrs by MTT assay; assay type: functional, cell-based
[5] = test system: HepG2; test: Antiproliferative activity against human HepG2 cells after 72 hrs by MTT assay; assay type: functional, cell-based; conditions: HepG2, 72 h
[6] = Antiproliferative activity against human HEK293 cells after 72 hrs by MTT assay; assay type: toxicity, cell-based
[7] = test system: HCT-116; test: Induction of cell cycle arrest in human HCT-116 cells assessed as increase in G2/M phase at IC50 measured after 24 hrs by flow cytometry; assay type: functional, cell-based
[8] = test system: HCT-116; test: Induction of cell cycle arrest in human HCT-116 cells assessed as moderate increase in S phase at IC50 measured after 24 hrs by flow cytometry; assay type: functional, cell-based
[9] = test system: HCT-116; test: Induction of cell cycle arrest in human HCT-116 cells assessed as slight increase in G0/G1 phase at IC50 measured after 24 hrs by flow cytometry; assay type: functional, cell-based
[10] = test system: A549; test: Induction of cell cycle arrest in human A549 cells assessed as increase in G2/M phase at IC50 measured after 24 hrs by flow cytometry; assay type: functional, cell-based
[11] = test system: A549; test: Induction of cell cycle arrest in human A549 cells assessed as moderate increase in S phase at IC50 measured after 24 hrs by flow cytometry; assay type: functional, cell-based
[12] = test system: A549; test: Induction of cell cycle arrest in human A549 cells assessed as slight increase in G0/G1 phase at IC50 measured after 24 hrs by flow cytometry; assay type: functional, cell-based
[13] = test system: U2OS; test: Induction of cell cycle arrest in human U2OS cells assessed as increase in G2/M phase at IC50 measured after 24 hrs by flow cytometry; assay type: functional, cell-based
[14] = test system: U2OS; test: Induction of cell cycle arrest in human U2OS cells assessed as moderate increase in S phase at IC50 measured after 24 hrs by flow cytometry; assay type: functional, cell-based
[15] = test system: U2OS; test: Induction of cell cycle arrest in human U2OS cells assessed as slight increase in G0/G1 phase at IC50 measured after 24 hrs by flow cytometry; assay type: functional, cell-based
[16] = test system: HCT-116; test: Induction of cell cycle arrest in human HCT-116 cells assessed as increase in number of cells at S phase at IC50 measured after 72 hrs by flow cytometry; assay type: functional, cell-based
[17] = test system: A549; test: Induction of cell cycle arrest in human A549 cells assessed as increase in number of cells at G2/M phase at IC50 measured after 24 to 48 hrs by flow cytometry; assay type: functional, cell-based; conditions: time 24-48 hrs
[18] = test system: A549; test: Induction of cell cycle arrest in human A549 cells assessed as increase in number of cells at S phase at IC50 measured after 72 hrs by flow cytometry; assay type: functional, cell-based
[19] = test system: U2OS; test: Inhibition of colony formation in human U2OS cells at 0.5 to 10 uM measured after 24 hrs crystal violet staining based assay; assay type: functional, cell-based; conditions: dose 0.5-10 µM
[20] = Drug uptake in human HCT-116 cells assessed as accumulation in lipid droplets at IC50 measured after 2 hr by immunofluorescence analysis; assay type: ADME, cell-based; conditions: hct-116, 2 h
[21] = test system: HCT-116; test: Inhibition of colony formation in human HCT-116 cells at 0.5 to 10 uM measured after 24 hrs crystal violet staining based assay; assay type: functional, cell-based; conditions: dose 0.5-10 µM
[22] = test system: HCT-116; test: Inhibition of cell migration in human HCT-116 cells at 5 to 10 uM measured after 24 hrs by wound healing assay; assay type: functional, cell-based; conditions: dose 5-10 µM
[23] = test system: HCT-116; test: Inhibition of cell migration in human HCT-116 cells at 10 uM measured after 60 hrs by wound healing assay relative to control; assay type: functional
[24] = test system: U2OS; test: Inhibition of cell migration in human U2OS cells at 5 to 10 uM measured after 24 to 48 hrs by wound healing assay; assay type: functional, cell-based; conditions: dose 5-10 µM, time 24-48 hrs
[25] = test system: HCT-116; test: Induction of apoptosis in human HCT-116 cells assessed as early apoptotic cells at IC50 measured after 6 hrs by Annexin-V-FITC/propidium iodide staining based flow cytometry; assay type: functional
[26] = test system: HCT-116; test: Induction of apoptosis in human HCT-116 cells assessed as early and late apoptotic cells at IC50 measured after 24 hrs by Annexin-V-FITC/propidium iodide staining based flow cytometry; assay type: functional, cell-based
[27] = test system: HCT-116; test: Induction of apoptosis in human HCT-116 cells assessed as necrotic cells at IC50 measured after 48 hrs by Annexin-V-FITC/propidium iodide staining based flow cytometry relative to control; assay type: functional
[28] = test system: HCT-116; test: Induction of apoptosis in human HCT-116 cells assessed as increase in caspase 3/7 activity at IC50 measured after 6 to 48 hrs by […] based flow cytometry; assay type: functional, cell-based; conditions: time 6-48 hrs
[29] = test system: HCT-116; test: Induction of reactive oxygen species generation in human HCT116 cells at 15 uM after 24 hrs by DCFH-DA staining based assay relative to control; assay type: functional
[30] = test system: U2OS; test: Induction of reactive oxygen species generation in human U2OS cells by DCFH-DA staining based assay; assay type: functional, cell-based; conditions: time 1-24 hrs
[31] = test system: HCT-116; test: Induction of mitochondrial membrane potential loss in human HCT116 cells assessed as green fluorescence intensity by JC1 staining-based flow cytometry analysis; assay type: functional, cell-based
[32] = test system: U2OS; test: Induction of mitochondrial membrane potential loss in human U2OS cells assessed as green fluorescence intensity by JC1 staining-based flow cytometry analysis; assay type: functional, cell-based
[33] = test system: HCT-116; test: Induction of mitochondrial morphological changes in human HCT-116 cells assessed as short circular-shaped mitochondria measured after 6 hrs by confocal microscopic analysis; assay type: functional, cell-based
[34] = test system: U2OS; test: Induction of mitochondrial morphological changes in human U2OS cells assessed as short circular-shaped mitochondria measured after 6 hrs by confocal microscopic analysis; assay type: functional, cell-based
[35] = test system: HCT-116; test: Induction of mitochondrial morphological changes in human HCT-116 cells assessed as reduction in mitochondrial length measured after 6 hrs by confocal microscopic analysis relative to control; assay type: functional; design: scale not given: the % may be the effect or the level left
[36] = test system: HCT-116; test: Induction of DNA damage in human HCT-116 cells assessed as increase in H2AX phosphorylation measured after 24 to 72 hrs by immunofluorescence analysis; assay type: functional, cell-based; conditions: time 24-72 hrs
[37] = test system: U2OS; test: Induction of DNA damage in human U2OS cells assessed as increase in H2AX phosphorylation measured after 48 hrs by immunofluorescence analysis relative to control; assay type: functional
[38] = test system: U2OS; test: Induction of DNA damage in human U2OS cells assessed as increase in H2AX phosphorylation measured after 72 hrs by immunofluorescence analysis relative to control; assay type: functional
[39] = test system: HCT-116; test: Induction of cell senescence in human HCT-116 cells assessed by increase SA-beta-Gal activity measured after 24 to 48 hrs by microscopic analysis; assay type: functional, cell-based; conditions: time 24-48 hrs

Compound: CCOC(=O)c1c(O)c(NC(=O)c2ccc(C)o2)cc2c1[nH]c1ccccc12
- IC50 [1]: > 50 µM
- IC50 [2]: > 50 µM
- IC50 [3]: > 50 µM
- IC50 [4]: > 50 µM
- IC50 [5]: > 50 µM
- IC50 at 72 h [6]: > 50 µM

Compound: CCOC(=O)c1c(O)c(NC(=O)c2ccc(CC)o2)cc2c1[nH]c1ccccc12
- IC50 [1]: > 50 µM
- IC50 [2]: > 50 µM
- IC50 [3]: > 50 µM
- IC50 [4]: > 50 µM
- IC50 [5]: > 50 µM
- IC50 at 72 h [6]: > 50 µM

Compound: CCOC(=O)c1c(OC(=O)c2ccc(C)o2)c(NC(=O)c2ccc(C)o2)cc2c1[nH]c1ccc(NC(=O)c3ccc(C)o3)cc12
- IC50 [1]: > 50 µM
- IC50 [2]: > 50 µM
- IC50 [3]: > 50 µM
- IC50 [4]: > 50 µM
- IC50 [5]: > 50 µM
- IC50 at 72 h [6]: > 50 µM

Compound: CCOC(=O)c1c(O)c(NC(=O)OC(C)(C)C)cc2c1[nH]c1ccc(OC(C)=O)cc12
- IC50 [1]: 46.4 µM
- IC50 [2]: > 50 µM
- IC50 [3]: > 50 µM
- IC50 [4]: 37.5 µM
- IC50 [5]: > 50 µM
- IC50 at 72 h [6]: > 50 µM

Compound: CC(C)(C)OC(=O)Nc1cc2c([nH]c3ccccc32)c(C(=O)O)c1O
- IC50 [1]: 3.75 µM
- IC50 [2]: 11.5 µM
- IC50 [3]: > 50 µM
- IC50 [4]: 2.34 µM
- IC50 [5]: > 50 µM
- IC50 at 72 h [6]: > 50 µM
- Activity [7]: Active
- Activity [8]: Active
- Activity [9]: Active
- Activity [10]: Active
- Activity [11]: Active
- Activity [12]: Active
- Activity [13]: Active
- Activity [14]: Active
- Activity [15]: Active
- Activity [16]: Active
- Activity [17]: Active
- Activity [18]: Active
- inhibition [19]: Active
- Drug uptake [20]: Active
- inhibition [21]: Active
- inhibition [22]: Active
- inhibition at 10 µM [23]: 64.4%
- inhibition [24]: Active
- Activity [25]: 11.23%
- Activity [26]: Active
- Activity [27]: 2.38%
- Activity [28]: Active
- Activity [29]: 64.2%
- Activity [30]: Active
- Activity [31]: Active
- Activity [32]: Active
- Activity [33]: Active
- Activity [34]: Active
- Activity [35]: 36.71%
- Activity [36]: Active
- Activity [37]: 51%
- Activity [38]: 68.2%
- Activity [39]: Active

Compound: CCOC(=O)c1c(O)c(NC(C)=O)cc2c1[nH]c1ccccc12
- IC50 [1]: > 50 µM
- IC50 [2]: > 50 µM
- IC50 [3]: > 50 µM
- IC50 [4]: > 50 µM
- IC50 [5]: > 50 µM
- IC50 at 72 h [6]: > 50 µM

Compound: CCOC(=O)CC(=O)C(Cc1c[nH]c2ccccc12)NC(=O)OC(C)(C)C (configuration not stated)
- IC50 [1]: > 50 µM
- IC50 [2]: > 50 µM
- IC50 [3]: > 50 µM
- IC50 [4]: > 50 µM
- IC50 [5]: > 50 µM
- IC50 at 72 h [6]: > 50 µM

Compound: CCOC(=O)Nc1cc2c([nH]c3ccccc32)c(C(=O)OCC)c1O
- IC50 [1]: > 50 µM
- IC50 [2]: 16.9 µM
- IC50 [3]: > 50 µM
- IC50 [4]: > 50 µM
- IC50 [5]: > 50 µM
- IC50 at 72 h [6]: > 50 µM

Compound: O=c1[nH]cc(F)c(=O)[nH]1 [FLUOROURACIL]
- IC50 [1]: 5.78 µM
- IC50 [2]: 8.12 µM
- IC50 [3]: 8.41 µM
- IC50 [4]: 13 µM
- IC50 [5]: 19 µM
- IC50 at 72 h [6]: 41 µM

Compound: CCOC(=O)c1c(O)c(NC(=O)OC(C)(C)C)cc2c1[nH]c1ccccc12
- IC50 [1]: 10.7 µM
- IC50 [2]: > 50 µM
- IC50 [3]: > 50 µM
- IC50 [4]: 15.7 µM
- IC50 [5]: > 50 µM
- IC50 at 72 h [6]: > 50 µM
- inhibition [19]: Active
- Drug uptake [20]: Active
- inhibition [21]: Active
- inhibition [22]: Active
- inhibition at 10 µM [23]: 57%
- inhibition [24]: Active
- Activity [26]: Active
- Activity [27]: 1.16%
- Activity [28]: Active
- Activity [29]: 19.6%
- Activity [30]: Active
- Activity [31]: Active
- Activity [32]: Active
- Activity [33]: Active
- Activity [34]: Active
- Activity [35]: 50.34%
- Activity [36]: Active
- Activity [39]: Active

Compound: CCOC(=O)c1c(O)c(NC(=O)OC(C)(C)C)cc2c1[nH]c1ccc(NC(=O)OC(C)(C)C)cc12
- IC50 [1]: > 50 µM
- IC50 [2]: > 50 µM
- IC50 [3]: > 50 µM
- IC50 [4]: > 50 µM
- IC50 [5]: > 50 µM
- IC50 at 72 h [6]: > 50 µM
